Chloride secretagogue activity and mucin production data for 1 compound are collected here from patent US6576663B2, “6-Keto prostaglandin F1α and analogs for treating dry eye” (Alcon, Inc., priority 1999, dated 2003).

In assay [1] the test system is intestinal epithelial cells. The settings on record: released by intestinal epithelial cells in response to hypoxia; cited from earlier work.
For assay [2], the system named is human conjuctival epithelium. Kind of assay: mucin production in human conjuctival epithelium. Format: cell-based.

Each structure is given as a SMILES string.

Take `CCCCC[C@H](O)/C=C/[C@@H]1[C@@H](CC(=O)CCCCC(=O)O)[C@@H](O)C[C@H]1O` [6-keto PGF1α, 6-keto-PGF1α]: the chloride secretagogue activity entry in assay [1] was “potent chloride secretagogue”. Moreover, the mucin production result in assay [2] is listed as “stimulate mucin production”.
